These results are taken from patent US7557213B2, “Substituted quinolones and methods of use” (ChemoCentryx, Inc., priority 2005, dated 2009).

The target of one experiment is T1, CCXCKR2 receptor (Homo sapiens, UniProt P25106).
T1 construct: expressed in transfected cells; host or cells: MDA-MB-435S transfected with pcDNA3.1(+)-hRDC1 and/or MCF-7 (endogenous receptor)
T1 sequence (P25106 whole entry): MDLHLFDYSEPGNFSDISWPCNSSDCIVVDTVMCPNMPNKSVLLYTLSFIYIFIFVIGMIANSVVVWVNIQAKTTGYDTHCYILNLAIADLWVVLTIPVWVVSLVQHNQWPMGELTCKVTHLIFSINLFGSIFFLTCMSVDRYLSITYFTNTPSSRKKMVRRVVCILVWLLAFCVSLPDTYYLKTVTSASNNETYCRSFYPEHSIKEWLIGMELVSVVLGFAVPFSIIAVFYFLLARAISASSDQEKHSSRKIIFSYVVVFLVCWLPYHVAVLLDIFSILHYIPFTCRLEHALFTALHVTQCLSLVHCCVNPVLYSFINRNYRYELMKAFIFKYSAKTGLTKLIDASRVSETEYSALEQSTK
Nature of the experiment: Displacement of 125I-labeled SDF-1 from the CCXCKR2 receptor on MCF-7 and/or CCXCKR2-transfected MDA-MB-435S cells (radioligand binding, filtration).
Conditions: not given
(In general: In a radioligand displacement assay an active substance lowers the binding of a labelled ligand.)
Turning to `Cc1ccc(C(=O)c2cn(CC3CCCCC3)c3ccccc3c2=O)cc1C` [Example 39], the IC50 is under 100 nM.

With `Cc1cccc(Cn2cc(C(=O)c3cccc(C)c3)c(=O)c3ccccc32)c1` [Example 20], the IC50 is under 100 nM.

Staying with this experiment, now noted: 125I SDF-1, 3 hr at 4° C., MCF-7 and/or MDA-MB-435S cells; read-out: Activity (concentration displacing at least 50% of the SDF-1 from the CCXCKR2 receptor).
On to `O=C(c1ccc(CN2CCOCC2)cc1)c1cn(Cc2cccc(Br)n2)c2ccccc2c1=O` [Example 123], for which the IC50 is 500 to 20000 nM.

Consider `COc1ccc(C(=O)c2cn(Cc3cccc(C(F)(F)F)n3)c3ccccc3c2=O)cc1C` [Example 202], for which the IC50 is under 100 nM.

Regarding `Cc1ccc(C(=O)c2cn(Cc3ccccc3F)c3cc4c(cc3c2=O)OC(F)(F)O4)cc1C` [Example 19], the IC50 is 500 to 20000 nM.

For the molecule `Cc1ccc(C(=O)c2cn(Cc3ccccn3)c3cc4c(cc3c2=O)OCO4)cc1C` [Example 1], the IC50 fell in the range of 100 to 500 nM.

As for `O=C(c1ccc(C(F)(F)F)nc1)c1cn(Cc2cccc(Br)c2)c2ccccc2c1=O` [Example 224], the IC50 lay within 500 to 20000 nM.

`Cc1ccc(C(=O)c2cn(Cc3cccc(Br)n3)c3nc(C)c(C)cc3c2=O)cc1C` [Example 159]: the IC50 is under 100 nM.

Take `Cc1cccc(Cn2cc(C(=O)c3ccccc3Br)c(=O)c3ccccc32)n1` [Example 176]: the IC50 is under 100 nM.

Regarding `Cc1ccc(C(=O)c2cn(Cc3cccc(C4CC4)n3)c3ccccc3c2=O)cc1C` [Example 74], the IC50 was under 100 nM.

On to `COc1ccc(C(=O)c2cn(Cc3cccc(C(F)(F)F)n3)c3ccccc3c2=O)cc1F` [Example 217], for which the IC50 was under 100 nM.

As to `Cc1cccc(Cn2cc(C(=O)c3cnccn3)c(=O)c3ccccc32)n1` [Example 63], the IC50 lay within 500 to 20000 nM.

In the case of `CNc1cccc(Cn2cc(C(=O)c3ccc(C)c(C)c3)c(=O)c3ccccc32)n1` [Example 93], the IC50 was under 100 nM.

With `O=C(c1ccc(C2OCCCO2)cc1)c1cn(Cc2cccc(Br)n2)c2ccccc2c1=O` [Example 137], the IC50 lay in the range of 100 to 500 nM.

For the molecule `Cc1cc(Cn2cc(C(=O)c3ccc(C)c(C)c3)c(=O)c3ccccc32)no1` [Example 30, 3-(3,4-Dimethyl-benzoyl)-1-(5-methyl-isoxazol-3-ylmethyl)-1H-quinolin-4-one], the IC50 lay in the range of 100 to 500 nM.

Take `COc1ccc(C(=O)c2cn(Cc3cccc(Br)n3)c3ccccc3c2=O)cc1F` [Example 145]: the IC50 was under 100 nM.

On to `Cc1ccc(C(=O)c2cn(Cc3cccc(S(C)(=O)=O)n3)c3ccccc3c2=O)cc1C` [Example 78], for which the IC50 fell in the range of 100 to 500 nM.

Consider `Cc1cc(C(=O)c2cn(Cc3cccc(Br)n3)c3ccccc3c2=O)c[n+]([O-])c1C` [Example 112], for which the IC50 is 100 to 500 nM.

`O=C(c1cccc(C2OCCCO2)c1)c1cn(Cc2cccc(Br)n2)c2ccccc2c1=O` [Example 135]: the IC50 was 500 to 20000 nM.

As to `Cc1ccccc1C(=O)c1cn(Cc2cccc(Br)n2)c2ccccc2c1=O` [Example 121], the IC50 is under 100 nM.

For the molecule `COc1ccc(C(=O)c2cn(Cc3cccc(C)n3)c3ncccc3c2=O)cc1` [Example 161], the IC50 was under 100 nM.

Regarding `Cc1cccc(Cn2cc(C(=O)c3ccc(C)c(C)c3)c(=O)c3nc(C)ccc32)n1` [Example 130], the IC50 is under 100 nM.

Turning to `Cc1cccc(Cn2cc(C(=O)c3ccc(N(C)C)nc3)c(=O)c3ccccc32)n1` [Example 214], the IC50 fell in the range of 100 to 500 nM.

For `CC(C)Oc1ccc(C(=O)c2cn(Cc3cccc(Br)n3)c3ccccc3c2=O)cc1` [Example 218], the IC50 was in the range of 100 to 500 nM.

For the molecule `Cc1ccc(C(=O)c2cn(Cc3cccc(Br)c3)c3ccccc3c2=O)cn1` [Example 227], the IC50 is under 100 nM.

On to `Cc1ncccc1C(=O)c1cn(Cc2cccc(Br)n2)c2ccccc2c1=O` [Example 219], for which the IC50 fell in the range of 100 to 500 nM.

Turning to `COc1ccc(C(=O)c2cn(Cc3cccc(Br)n3)c3ccccc3c2=O)cc1` [Example 144], the IC50 is under 100 nM.

Turning to `CN(C)C(=O)c1ccccc1C(=O)c1cn(Cc2cccc(Br)n2)c2ccccc2c1=O` [Example 168], the IC50 was under 100 nM.

As for `Cc1ccc2c(n1)c(=O)c(C(=O)c1ccc(C)c(C)c1)cn2Cc1cccc(Br)n1` [Example 119], the IC50 was under 100 nM.

`Cc1cccc(Cn2cc(C(=O)c3cnc(C)c(C)c3)c(=O)c3ccccc32)n1` [Example 50]: the IC50 was under 100 nM.

With `Cc1cccc(Cn2cc(C(=O)c3ccncc3)c(=O)c3ccccc32)c1` [Example 17], the IC50 was in the range of 500 to 20000 nM.

Take `Cc1cccc(Cn2cc(C(=O)c3ccnc(C)c3)c(=O)c3ccccc32)c1` [Example 26]: the IC50 was in the range of 500 to 20000 nM.

Regarding `Cc1cccc(Cn2cc(C(=O)c3cccnc3)c(=O)c3ccccc32)c1` [Example 34, 1-(3-Methyl-benzyl)-3-(pyridine-3-carbonyl)-1H-quinolin-4-one], the IC50 lay in the range of 500 to 20000 nM.

On to `Cc1ccc(C(=O)c2cn(Cc3cnn[nH]3)c3ccccc3c2=O)cc1C` [Example 48], for which the IC50 lay within 100 to 500 nM.

On to `Cc1cc(C(=O)c2cn(Cc3cccc(CO)n3)c3ccccc3c2=O)cnc1C` [Example 125], for which the IC50 was in the range of 100 to 500 nM.

As to `CCc1ccc(C(=O)c2cn(Cc3cccc(Cl)c3)c3ccccc3c2=O)cn1` [Example 244], the IC50 is 100 to 500 nM.

As for `COc1ccc(C(=O)c2cn(Cc3cccc(C)n3)c3nc(C)c(C)cc3c2=O)cc1F` [Example 199], the IC50 was 500 to 20000 nM.

Take `COc1cccc(Cn2cc(C(=O)c3ccc(C)c(C)c3)c(=O)c3ccccc32)n1` [Example 69]: the IC50 was under 100 nM.

Consider `O=C(O)c1ccccc1C(=O)c1cn(Cc2cccc(Br)n2)c2ccccc2c1=O` [Example 138], for which the IC50 was under 100 nM.

With `O=C(c1ccccc1C(=O)N1CCC1)c1cn(Cc2cccc(Br)n2)c2ccccc2c1=O` [Example 171], the IC50 is under 100 nM.

Consider `Cc1cc(C(=O)c2cn(Cc3cccc(C)n3)c3ccccc3c2=O)ccn1` [Example 25], for which the IC50 was in the range of 500 to 20000 nM.

As for `Cc1cccc(Cn2cc(C(=O)c3ccccc3N3CCOCC3)c(=O)c3ccccc32)n1` [Example 205], the IC50 is under 100 nM.

As to `Cc1ccc2c(=O)c(C(=O)c3ccc4c(c3)OCCO4)cn(Cc3cccc(Br)n3)c2n1` [Example 142], the IC50 was under 100 nM.

Take `Cc1ccc(C(=O)c2cn(Cc3ccccc3F)c3ccncc3c2=O)cc1C` [Example 46]: the IC50 was 500 to 20000 nM.

As for `Cc1cccc(Cn2cc(C(=O)c3ccc(C(C)C)cc3)c(=O)c3cccnc32)n1` [Example 165], the IC50 is under 100 nM.

As for `Cc1ccc(C(=O)c2cn(Cc3cccc(Br)n3)c3cccnc3c2=O)cc1C` [Example 105], the IC50 was under 100 nM.

As for `Cc1ccc(C(=O)c2cn(Cc3ccccc3C(F)(F)F)c3ccccc3c2=O)cc1C` [Example 36], the IC50 was 500 to 20000 nM.

Regarding `COc1ccc(C(=O)c2cn(Cc3cccc(Br)n3)c3cccnc3c2=O)cc1C` [Example 201], the IC50 lay within 500 to 20000 nM.

Take `Cc1ccc(C(=O)c2cn(Cc3cccc(Br)n3)c3ccccc3c2=O)cc1C` [Example 51]: the IC50 is under 100 nM.

Regarding `Cc1cccc(Cn2cc(C(=O)c3ccc(C)c(C)c3)c(=O)c3cc4c(cc32)OCCO4)c1` [Example 5], the IC50 is 500 to 20000 nM.

For the molecule `COc1ccc(C(=O)c2cn(Cc3cccc(C#N)n3)c3ncccc3c2=O)cc1C` [Example 194], the IC50 was under 100 nM.

On to `COc1ccc(C(=O)c2cn(Cc3cccc(Br)n3)c3ccc(C)nc3c2=O)cc1F` [Example 237], for which the IC50 lay in the range of 500 to 20000 nM.

As to `Cc1ccc(C(=O)c2cn(Cc3cccc(Br)n3)c3ccccc3c2=O)c(C)c1` [Example 101], the IC50 is under 100 nM.

In the case of `COc1ccc(C(=O)c2cn(Cc3cccc(Br)n3)c3ccc(C)nc3c2=O)cc1C` [Example 215], the IC50 is under 100 nM.

For the molecule `Cc1cc(C(=O)c2cn(Cc3cccc(NC4CC4)n3)c3ccccc3c2=O)cnc1C` [Example 110], the IC50 fell in the range of 500 to 20000 nM.

Turning to `CCc1ccc(C(=O)c2cn(Cc3cccc(Br)n3)c3ccccc3c2=O)cc1` [Example 115], the IC50 was under 100 nM.

Take `O=C(c1cccnc1)c1cn(Cc2ccccc2F)c2ccccc2c1=O` [Example 33]: the IC50 lay in the range of 500 to 20000 nM.

With `Cc1cccc(Cn2cc(C(=O)c3ccc(C)c(C)c3)c(=O)c3ccc(C)nc32)n1` [Example 107], the IC50 is under 100 nM.

As for `CN(C)c1ccc(C(=O)c2cn(Cc3cccc(Br)n3)c3ccccc3c2=O)cc1` [Example 120], the IC50 is under 100 nM.

As for `Cc1ccc(C(=O)c2cn(Cc3ccccc3F)c3ccc(C(F)(F)F)cc3c2=O)cc1C` [Example 14], the IC50 is 500 to 20000 nM.

As to `O=C(c1ccc2c(c1)OCCO2)c1cn(Cc2cccc(Br)c2)c2ccccc2c1=O` [Example 231], the IC50 was under 100 nM.

In the case of `O=C(c1ncc(Br)cn1)c1cn(Cc2cccc(Br)n2)c2ccccc2c1=O` [Example 128], the IC50 lay within 500 to 20000 nM.

As to `Cc1cc(C(=O)c2cn(Cc3ccccc3F)c3ccccc3c2=O)cnc1C` [Example 40], the IC50 is under 100 nM.

With `Cc1ccc(C(=O)c2cn(C(C)c3cccc(Br)n3)c3ccccc3c2=O)nc1C` (stereo not shown) [Example 76], the IC50 is under 100 nM.

As for `Cc1ccc(C(=O)c2cn(Cc3cccc(C(=O)O)n3)c3ccccc3c2=O)cc1C` [Example 83], the IC50 was 500 to 20000 nM.

Regarding `COc1cc(C(=O)c2cn(Cc3cccc(Br)n3)c3ccccc3c2=O)ccc1Cl` [Example 204], the IC50 is under 100 nM.

`Cc1ccc(C(=O)c2cn(Cc3cccc(C#N)n3)c3ccccc3c2=O)cc1C` [Example 81]: the IC50 is under 100 nM.

Consider `COc1ccc(C(=O)c2cn(Cc3cccc(C)n3)c3ccccc3c2=O)cc1F` [Example 183], for which the IC50 was under 100 nM.

`Cc1ccc(C(=O)c2cn(Cc3cccc(N4CCOCC4)n3)c3ccccc3c2=O)cc1C` [Example 71]: the IC50 is 100 to 500 nM.

For `Cc1ccc(C(=O)c2cn(Cc3ccccn3)c3cc4c(cc3c2=O)OCCO4)cc1C` [Example 11], the IC50 was 500 to 20000 nM.

Turning to `CCOc1ccc(C(=O)c2cn(Cc3cccc(Br)n3)c3ccccc3c2=O)cc1C` [Example 132], the IC50 is under 100 nM.

With `CNCc1cccc(Cn2cc(C(=O)c3ccc(C)c(C)c3)c(=O)c3ccccc32)n1` [Example 117], the IC50 lay within 500 to 20000 nM.

`COc1ncc(C(=O)c2cn(Cc3cccc(Br)n3)c3ccccc3c2=O)cc1C` [Example 198]: the IC50 was under 100 nM.
